The supplement of paper PMC10307832

Experiments:
Assay in all cases: relative viability (nuclei count vs DMSO), 5 days (fraction); higher = more cells survive
Cediranib + AZD7762 = compound: COc1cc2c(Oc3ccc4[nH]c(C)cc4c3F)ncnc2cc1OCCCN1CCCC1 [Cediranib] + NC(=O)Nc1cc(-c2cccc(F)c2)sc1C(=O)N[C@H]1CCCNC1 [AZD7762] (partner 0.2 µM)
Outline: (§1)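 Each reported value is a median over duplicate plates. It expresses relative viability: treated-well nuclei count divided by vehicle-well nuclei count. Lung cancer cell lines in 1536-well plates were dosed by pin tool a day after seeding, alone with one drug or with a fixed anchor-drug dose plus five library-drug doses (not always all listed) in √10 steps, and nuclei were counted after 5 days.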

Cediranib + Vorinostat = compound: COc1cc2c(Oc3ccc4[nH]c(C)cc4c3F)ncnc2cc1OCCCN1CCCC1 [Cediranib] + O=C(CCCCCCC(=O)Nc1ccccc1)NO [Vorinostat] (partner 1 µM)
Outline: as §1

Decitabine + Dasatinib = compound: Nc1ncn([C@H]2C[C@H](O)[C@@H](CO)O2)c(=O)n1 [Decitabine] + Cc1nc(Nc2ncc(C(=O)Nc3c(C)cccc3Cl)s2)cc(N2CCN(CCO)CC2)n1 [Dasatinib] (partner 0.075 µM)
Outline: as §1

[1] = compound: O=C(C[C@H]1NCCC[C@@H]1O)Cn1cnc2cc(Br)c(Cl)cc2c1=O (racemic) [Halofuginone] + C[C@@H](Oc1cc(-c2cnn(C3CCNCC3)c2)cnc1N)c1c(Cl)ccc(F)c1Cl [Crizotinib] (partner 1 µM)
Outline: as §1

| Cell Line | relative viability (Cediranib + AZD7762; first compound 0.04 µM) | relative viability (Cediranib + AZD7762; first compound 0.1265 µM) | relative viability (Cediranib + AZD7762; first compound 0.4 µM) | relative viability (Cediranib + AZD7762; first compound 1.265 µM) | relative viability (Cediranib + AZD7762; first compound 4 µM) | relative viability (Cediranib + Vorinostat; first compound 0.04 µM) | relative viability (Cediranib + Vorinostat; first compound 0.1265 µM) | relative viability (Cediranib + Vorinostat; first compound 0.4 µM) | relative viability (Cediranib + Vorinostat; first compound 1.265 µM) | relative viability (Cediranib + Vorinostat; first compound 4 µM) | relative viability (Decitabine + Dasatinib; first compound 0.04 µM) | relative viability (Decitabine + Dasatinib; first compound 0.1265 µM) | relative viability (Decitabine + Dasatinib; first compound 1.265 µM) | relative viability (Decitabine + Dasatinib; first compound 4 µM) | relative viability ([1]; first compound 0.001 µM) | relative viability ([1]; first compound 0.003162 µM) | relative viability ([1]; first compound 0.01 µM) | relative viability ([1]; first compound 0.03162 µM) | relative viability ([1]; first compound 0.1 µM) | relative viability (Decitabine + Dasatinib; first compound 0.4 µM) |
| --- | --- | --- | --- | --- | --- | --- | --- | --- | --- | --- | --- | --- | --- | --- | --- | --- | --- | --- | --- | --- |
| RERF-LC-KJ | 0.92 | 0.411 | 0.881 | 0.725 | 0.923 | 0.805 | 0.226 | 0.62 | 0.674 | 0.761 | 0.703 | 0.741 | 0.465 | 0.485 | 0.888 | 0.791 | 0.807 | 0.818 | 0.823 |  |
| NCI-H1755 | 0.423 | 0.617 | 0.375 | 0.43 | 0.425 | 0.808 | 0.65 | 0.683 | 0.763 | 0.762 | 0.47 | 0.467 | 0.365 | 0.306 | 0.916 | 0.884 | 0.806 | 0.869 | 0.348 | 0.422 |
| NCI-H2126 | 0.985 | 1.08 | 1.01 | 0.87 | 1.05 | 0.738 | 0.578 | 0.725 | 0.614 | 0.81 | 0.603 | 0.547 | 0.421 | 0.376 | 1.02 | 1.03 | 0.998 | 1.02 | 0.987 | 0.429 |
| EPLC-272H | 0.2 |  | 0.272 | 0.175 | 0.259 | 0.38 | 0.448 | 0.401 | 0.527 | 0.383 |  | 0.297 | 0.232 | 0.144 | 0.871 | 0.928 | 0.879 | 0.807 | 0.774 | 0.118 |
| NCI-H1975 | 0.687 | 0.73 | 0.782 | 0.799 | 0.602 | 0.757 | 0.716 | 0.704 | 0.669 | 0.785 | 0.325 | 0.258 | 0.194 | 0.15 | 1.12 | 0.91 | 1.01 | 0.628 | 0.184 | 0.197 |
| NCI-H3122 | 1.05 |  | 0.95 | 0.969 | 1.07 | 1.02 |  | 0.985 | 1.13 | 1.07 | 0.665 | 0.833 | 0.321 | 0.459 | 0.253 | 0.251 | 0.232 | 0.281 | 0.264 | 0.233 |
| BEN | 0.772 | 0.587 | 0.649 | 0.517 | 0.696 | 0.669 | 0.445 | 0.592 | 0.552 | 0.588 | 0.373 | 0.406 | 0.251 | 0.218 | 0.979 | 0.784 | 1.07 | 0.772 | 0.479 | 0.225 |
| NCI-H1915 | 0.657 | 0.8 | 0.715 | 0.709 | 0.719 | 0.5 | 0.426 | 0.485 | 0.501 | 0.544 | 0.253 | 0.228 | 0.2 | 0.193 | 0.897 | 0.954 | 0.813 | 0.894 | 0.73 | 0.189 |
| NCI-H650 | 0.879 | 0.654 | 0.953 | 0.944 | 1.13 | 0.363 | 0.319 | 0.526 | 0.356 | 0.454 | 0.422 | 0.443 | 0.344 | 0.275 | 0.77 | 0.714 | 0.73 | 0.604 | 0.344 | 0.357 |
| NCI-H460 | 0.727 | 0.679 | 0.584 | 0.574 | 0.616 | 0.795 | 0.792 | 0.661 | 0.678 | 0.822 | 0.453 | 0.682 | 0.239 | 0.183 | 1.05 | 1.06 | 0.866 | 0.409 | 0.0383 | 0.341 |
| LCLC-103H | 0.829 | 1.01 | 0.724 | 0.826 | 0.858 | 0.824 | 0.572 | 0.767 | 0.78 | 0.898 | 0.507 | 0.57 | 0.337 | 0.374 | 1.09 | 1 | 0.972 | 0.948 | 0.85 | 0.457 |
| HCC-827 | 0.226 | 0.455 | 0.193 | 0.163 | 0.198 | 0.847 | 0.574 | 0.846 | 0.729 | 1.12 | 0.139 | 0.317 | 0.284 | 0.267 | 0.913 | 0.893 | 0.895 | 0.973 | 0.798 | 0.325 |
| NCI-H322M | 0.621 | 0.671 | 0.495 | 0.424 | 0.565 | 0.876 | 1.05 | 0.818 | 0.983 | 0.871 | 0.246 | 0.327 | 0.285 | 0.349 | 0.982 | 0.911 | 0.906 | 1.01 | 0.77 | 0.299 |
| NCI-H1666 | 0.868 | 0.757 | 0.907 | 0.767 | 0.894 | 1.18 | 1.06 | 0.908 | 0.955 | 1.03 | 0.773 | 0.735 | 0.636 | 0.617 | 1.02 | 1.02 | 0.948 | 0.913 | 0.582 | 0.684 |
| NCI-H1437 | 1.12 | 1.1 | 1.15 | 1.07 | 0.998 | 0.875 | 0.778 | 0.872 | 0.819 | 0.898 | 0.357 | 0.376 | 0.167 | 0.169 | 0.935 | 0.918 | 0.807 | 0.73 | 0.841 | 0.256 |
| NCI-H358 | 0.613 | 0.496 | 0.478 | 0.596 | 0.502 | 0.689 | 1.05 | 0.638 | 0.705 | 0.648 | 0.255 | 0.203 | 0.137 | 0.153 | 0.832 | 0.678 | 0.467 | 0.253 | 0.0914 | 0.216 |
